Assay results from patent US9938299B2, “Glycosidase inhibitors and uses thereof” (MERCK SHARP & DOHME CORP., priority 2012, dated 2018).

Each molecule was assayed against T1, human O-GlcNAcase (Homo sapiens, UniProt O60502) (assay: Determination of KI values for inhibition of O-GlcNAcase activity (fluorogenic 4-methylumbelliferyl GlcNAc substrate)). Settings: not given.
T1 sequence (O60502 1-916): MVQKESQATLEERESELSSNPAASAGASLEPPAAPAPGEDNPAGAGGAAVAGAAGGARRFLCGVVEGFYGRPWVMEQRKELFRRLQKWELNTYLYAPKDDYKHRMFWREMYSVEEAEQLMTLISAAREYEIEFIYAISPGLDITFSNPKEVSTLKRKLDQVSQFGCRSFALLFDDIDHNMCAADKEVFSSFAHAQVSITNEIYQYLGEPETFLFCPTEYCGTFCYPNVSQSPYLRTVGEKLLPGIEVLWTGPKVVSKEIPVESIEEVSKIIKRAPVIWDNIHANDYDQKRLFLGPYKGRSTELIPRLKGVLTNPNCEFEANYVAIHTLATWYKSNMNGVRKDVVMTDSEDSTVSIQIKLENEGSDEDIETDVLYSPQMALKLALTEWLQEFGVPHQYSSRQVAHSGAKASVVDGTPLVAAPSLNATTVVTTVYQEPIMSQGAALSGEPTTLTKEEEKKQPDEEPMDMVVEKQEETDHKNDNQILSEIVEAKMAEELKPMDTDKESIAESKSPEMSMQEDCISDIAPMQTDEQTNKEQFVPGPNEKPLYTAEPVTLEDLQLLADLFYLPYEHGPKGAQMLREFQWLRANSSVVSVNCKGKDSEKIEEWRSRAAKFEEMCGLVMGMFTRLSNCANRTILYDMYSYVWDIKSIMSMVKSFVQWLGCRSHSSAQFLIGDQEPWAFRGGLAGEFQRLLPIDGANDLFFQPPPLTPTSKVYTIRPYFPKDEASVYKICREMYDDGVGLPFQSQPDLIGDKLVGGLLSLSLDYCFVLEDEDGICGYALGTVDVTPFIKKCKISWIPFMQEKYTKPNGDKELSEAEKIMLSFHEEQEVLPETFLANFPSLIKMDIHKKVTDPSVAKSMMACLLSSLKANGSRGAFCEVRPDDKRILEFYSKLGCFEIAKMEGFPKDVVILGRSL
Assay type: biochemical
Method: Assay for Determination of […] for Inhibition of O-GlcNAcase Activity
Experimental procedure for kinetic analyses: Enzymatic reactions were carried out in a reaction containing 50 mM NaH2PO4, 100 mM NaCl and 0.1% BSA (pH 7.0) using 2 mM 4-Methylumbelliferyl N-acetyl-β-D-glucosaminide dihydrate (Sigma M2133) dissolved in ddH2O, as a substrate. The amount of purified human O-GlcNAcase enzyme used in the reaction was 0.7 nM. Test compound of varying concentrations was added to the enzyme prior to initiation of the reaction. The reaction was performed at room temperature in a 96-well plate and was initiated with the addition of substrate. […] The slope of product production was determined for each concentration of compound tested and plotted, using standard curve fitting algorithms for sigmoidal dose response curves. The values for a four parameter logistic curve fit of the data were determined.

Row | SMILES | Ki [nM]
1 | CCNC1=N[C@@H]2[C@@H](O)[C@H](O)[C@@H](CCl)O[C@@H]2S1 [Example 54, (3aR,5S,6S,7R,7aR)-5-(chloromethyl)-2-(ethylamino)-5,6,7,7a-tetrahydro-3aH-pyrano[3,2-d]thiazole-6,7-diol] | 2.3
2 | CCNC1=N[C@@H]2[C@@H](O)[C@H](O)[C@@H](C(=O)N(C)OC)O[C@@H]2S1 [Example 47, (3aR,5S,6S,7R,7aR)-2-(ethylamino)-6,7-dihydroxy-N-methoxy-N-methyl-5,6,7,7a-tetrahydro-3aH-pyrano[3,2-d]thiazole-5-carboxamide] | 3320

Same assay, conditions: purified human O-GlcNAcase 0.7 nM, 2 mM substrate, pH 7.0, room temperature; Cheng-Prusoff; read-out: Ki

Row | Ki [nM] | SMILES
3 | 0.95 | CNC1=N[C@@H]2[C@@H](O)[C@H](O)[C@@H]([C@](O)(CCc3ccc(OC)cc3)C(F)(F)F)O[C@@H]2S1 (single isomer, unassigned) [Example 8]
4 | 1.08 | CNC1=N[C@@H]2[C@@H](O)[C@H](O)[C@@H](CC#N)O[C@@H]2S1 [Example 31, 2-((3aR,5R,6S,7R,7aR)-6,7-dihydroxy-2-(methylamino)-5,6,7,7a-tetrahydro-3aH-pyrano[3,2-d]thiazol-5-yl)acetonitrile]
5 | 601 | CCNC1=N[C@@H]2[C@@H](O)[C@H](O)[C@@H](C#N)O[C@@H]2S1 [Example 58, (3aR,5R,6S,7R,7aR)-2-(ethylamino)-6,7-dihydroxy-5,6,7,7a-tetrahydro-3aH-pyrano[3,2-d]thiazole-5-carbonitrile]
6 | 1.1 | CNC1=N[C@@H]2[C@@H](O)[C@H](O)[C@@H]([C@H](CCc3ccc(OC)cc3)C(F)(F)F)O[C@@H]2S1 [Example 18, (3aR,5R,65,7R,7aR)-2-(methylamino)-5-(1,1,1-trifluoro-4-(4-methoxyphenyl)butan-2-yl)-5,6,7,7a-tetrahydro-3aH-pyrano[3,2-d]thiazole-6,7-diol]
7 | 21 | C=C(C)[C@H]1O[C@@H]2SC(N(C)C)=N[C@@H]2[C@@H](O)[C@@H]1O [Example 16, (3aR,5R,6S,7R,7aR)-2-(dimethylamino)-5-(prop-1-en-2-yl)-5,6,7,7a-tetrahydro-3aH-pyrano[3,2-d]thiazole-6,7-diol]
8 | 1.1 | COc1ccc(CCC(O)([C@H]2O[C@@H]3SC(N(C)C)=N[C@@H]3[C@@H](O)[C@@H]2O)C(F)(F)F)cc1 (stereo in doubt) [Example 29, (3aR,5S,6S,7R,7aR)-2-(dimethylamino)-5-((S)-1,1,1-trifluoro-2-hydroxy-4-(4-methoxyphenyl)butan-2-yl)-5,6,7,7a-tetrahydro-3aH-pyrano[3,2-d]thiazole-6,7-diol]
9 | 0.075 | CNC1=N[C@@H]2[C@@H](O)[C@H](O)[C@@H](CCl)O[C@@H]2S1 [Example 39, (3aR,5 S,6S,7R,7aR)-5-(chloromethyl)-2-(methylamino)-5,6,7,7a-tetrahydro-3aH-pyrano[3,2-d]thiazole-6,7-diol]
10 | 9.5 | COc1ccc(C/C=C(\[C@H]2O[C@@H]3SC(N(C)C)=N[C@@H]3[C@@H](O)[C@@H]2O)C(F)(F)F)cc1 (single isomer, unassigned) [Example 3]
11 | 845 | CNC(=O)[C@H]1O[C@@H]2SC(NC)=N[C@@H]2[C@@H](O)[C@@H]1O [Example 35, (3aR,5 S,6S,7R,7aR)-6,7-dihydroxy-N-methyl-2-(methylamino)-5,6,7,7a-tetrahydro-3aH-pyrano[3,2-d]thiazole-5-carboxamide]
12 | 22 | CNC1=N[C@@H]2[C@@H](O)[C@H](O)[C@@H](CCC(=O)OC)O[C@@H]2S1 [Example 12, methyl 3-((3aR,5R,6S,7R,7aR)-6,7-dihydroxy-2-(methylamino)-5,6,7,7a-tetrahydro-3aH-pyrano[3,2-d]thiazol-5-yl)propanoate]
13 | 5.9 | CN(C)C1=N[C@@H]2[C@@H](O)[C@H](O)[C@@H](CC#N)O[C@@H]2S1 [Example 11, 2-((3aR,5R,6S,7R,7aR)-2-(dimethylamino)-6,7-dihydroxy-5,6,7,7a-tetrahydro-3aH-pyrano[3,2-d]thiazol-5-yl)acetonitrile]
14 | 1.2 | CNC1=N[C@@H]2[C@@H](O)[C@H](O)[C@@H]([C@@H](O)CCc3ccc(OC)cc3)O[C@@H]2S1 (single isomer, unassigned) [Example 7]
